According to PubChem BioAssay (NCI):
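Assay format: 96-well plates, 48-hour exposure. Definition used: TGI = concentration required for complete inhibition of growth.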

Legend:
Test in all cases: NCI tumour cell line growth inhibition, 48 h
[1] = system: LOX IMVI melanoma
[2] = system: OVCAR-4 ovarian
[3] = system: CCRF-CEM leukemia
[4] = system: NCI/ADR-RES ovarian
[5] = system: SF-295 CNS
[6] = system: MDA-N
[7] = system: HS 578T breast
[8] = system: HOP-92 NSCLC
[9] = system: MALME-3M melanoma
[10] = system: NCI-H226 lung
[11] = system: RPMI-8226 leukemia
[12] = system: COLO 205 colon
[13] = system: HOP-62 NSCLC
[14] = system: PC-3 prostate
[15] = system: TK-10 renal
[16] = system: OVCAR-8 ovarian
[17] = system: A549 NSCLC
[18] = system: HL-60(TB) leukemia
[19] = system: SNB-19 CNS
[20] = system: U251 CNS
[21] = system: 786-0 renal
[22] = system: SN12C renal
[23] = system: HCT-15 colon
[24] = system: MCF7 breast
[25] = system: A498 renal
[26] = system: SNB-75 CNS
[27] = system: NCI-H23 lung
[28] = system: SW-620 colon
[29] = system: IGROV1 ovarian
[30] = system: KM12 colon
[31] = system: NCI-H460 lung
[32] = system: UACC-257 melanoma
[33] = system: RXF 393 renal
[34] = system: HCT-116 colon
[35] = system: MOLT-4 leukemia
[36] = system: UO-31 renal
[37] = system: HT29 colon
[38] = system: ACHN renal
[39] = system: HCC-2998 colon
[40] = system: MDA-MB-435
[41] = system: EKVX NSCLC
[42] = system: BT-549 breast
[43] = system: DU-145 prostate
[44] = system: SK-MEL-5 melanoma
[45] = system: OVCAR-5 ovarian
[46] = system: UACC-62 melanoma
[47] = system: SF-268 CNS
[48] = system: SF-539 CNS
[49] = system: T-47D breast
[50] = system: M14 melanoma
[51] = system: CAKI-1 renal
[52] = system: SK-MEL-28 melanoma
[53] = system: NCI-H522 lung
[54] = system: OVCAR-3 ovarian
[55] = system: SR leukemia
[56] = system: SK-MEL-2 melanoma
[57] = system: SK-OV-3 ovarian
[58] = system: MDA-MB-231 breast
[59] = system: K-562 leukemia

Measured: TGI

COc1ccc(N=NC(=O)NC(CC(C)C)C(=O)NC(Cc2ccccc2)C(=O)O)cc1 (stereo not given)
8.18 µM: [18]
3.22 µM: [48]
25.6 µM: [44]
97.5 µM: [8]
5.36 µM: [12]
45.2 µM: [32]
46.9 µM: [1]
not listed: [55] | [56] | [57] | [58] | [59]
> 100 µM: all other assays above

C[C@H](NC1=CC(=O)C(N[C@@H](C)[C@H](O)c2ccccc2)=CC1=O)[C@H](O)c1ccccc1
63.7 µM: [37]
not listed: [24] | [26] | [39]
> 100 µM: all other assays above

Cc1cc(S(=O)(=O)O)ccc1N=Nc1c(O)ccc2ccccc12
not listed: [1] | [24] | [25] | [31] | [39] | [48] | [55]
> 100 µM: all other assays above

Cc1ccc(C2C(C(=O)C(C)(C)C)N2S(=O)(=O)c2ccc(C)cc2)cc1 (stereo not given)
36.1 µM: [53]
96.2 µM: [2]
74.7 µM: [28]
37.5 µM: [42]
32.6 µM: [36]
45.8 µM: [40]
47.5 µM: [23]
28.9 µM: [48]
52 µM: [49]
46.1 µM: [33]
> 100 µM: [5] | [14] | [17] | [56] | [57] | [30]
75.3 µM: [52]
37 µM: [41]
46.5 µM: [29]
35.4 µM: [34]
82.5 µM: [7]
64.2 µM: [11]
35.6 µM: [50]
53.6 µM: [1]
34.8 µM: [6]
39.8 µM: [58]
62 µM: [54]
94.6 µM: [13] | [47]
62.3 µM: [24]
49.3 µM: [45]
97.2 µM: [15]
65.3 µM: [59]
34.6 µM: [12]
42 µM: [20]
69.6 µM: [26]
75.9 µM: [4]
40.6 µM: [22]
59.1 µM: [51]
51.9 µM: [16]
65.2 µM: [37]
57.5 µM: [19]
55.1 µM: [10]
49.1 µM: [9]
48.5 µM: [27]
33.6 µM: [39]
30.7 µM: [46]
78.1 µM: [3]
38.6 µM: [43]

NNC(=O)c1n[nH]n(N)c1=S
not listed: [8] | [18] | [19] | [24] | [55]
> 100 µM: all other assays above
